# Experimental data taken from patent US20190048052A1, “ANTI-MICROBIAL PEPTIDES AND COATINGS” (Board of Regents of the University of Nebraska, priority 2016, published 2019).
# Residues, ends and D or L forms follow the SMILES beside them.
# Assays:
# B. megaterium = conditions: Abbassi et al. (2010); cited from earlier work
# [1] = tested on: E. coli ATCC 25922 and ML-35p strains; conditions: Abbassi et al. (2010); cited from earlier work
# E. coli ATCC 35218 = conditions: Abbassi et al. (2010); cited from earlier work
# S. aureus ATCC 25923 = conditions: Abbassi et al. (2010); cited from earlier work
# S. aureus USA300 [2] = assay type: cell-based, Staphylococcus aureus; conditions: Table 2, first S. aureus USA300 column
# How it was run: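 Broth microdilution: exponential-phase bacteria at 10^6 CFU incubated with serially diluted peptides ~20 hours at 37° C, read at 630 nm to give MICs. For S. aureus USA300, effects of up to 10% human serum, pH 6.8/7.4/8.0 and 150 mM NaCl also tested.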
# HeLa CCL-2 cells = experiment: Cytotoxicity of PET-CysTetraF2W-RR (MTS); assay type: cell-based, human
# Experimental: HeLa CCL-2 cells from American Type Culture Collection (ATCC) were maintained in DMEM high glucose media with 4 mM L-glutamine (NyClone) and 100 U/mL penicillin, 100 μg/mL streptomycin (pen/strep; p/s) (Life Technologies), and 10% (v/v) inactivated fetal bovine serum (FBS, NyClone), DMEM with 10% FBS, p/s. Cells were grown in 5% CO2 at 37° C. and were detached from culturing dish at 100% confluency using 0.025% trypsin-EDTA (NyClone) treatment, seeded (18,000 cells/well) in 24-well plates (Corning Life Science) and grown overnight in 200 μL DMEM media until 70% confluency. Then the old media were replaced with 500 μL of fresh DMEM media and continued to cultivate for 1 hour with the surfaces with or without peptides (1.0×1.0 cm). 200 μL of the liquid content of each well was taken out and mixed with 20 μL of MTS. The plate was further incubated for another 2 hours at 37° C. To quantify the cytotoxicity, 100 μL of the solution was placed in a 96-well plate and the absorbance was measured on a ChroMate® reader (Awareness Technology) at 492 nm. For comparison, the same amounts of soluble peptides was used to treat them in the same way as described above. Water and 0.2% SDS were used as negative and positive controls, respectively.
# S. aureus USA300 [3] = assay type: cell-based, Staphylococcus aureus
# Experimental: (§1) The antimicrobial activity of peptides was evaluated using a standard broth microdilution protocol. In brief, exponential phase bacteria at 10^6 CFU were incubated with serially diluted peptides overnight for ˜20 hours at 37° C. The plates were read on a ChroMate® 4300 Microplate Reader at 630 nm (GMI, Ramsey, Minn.).
# E. coli ATCC 25922 = assay type: cell-based, Escherichia coli; conditions: ATCC 25922, 20 h
# Experimental: as §1
# human red blood cells = experiment: Hemolytic ability (Example 3); assay type: cell-based; conditions: concentration that causes 50% hemolysis
# Experimental: Hemolytic analysis of selected peptides was performed using an established protocol. Briefly, human blood cells (UNMC Blood Bank) were washed three times with phosphate buffer saline (PBS) and diluted to a 2% solution. After peptide treatment, incubation at 37° C. for one hour, and centrifugation at 13,000 rpm, aliquots of the supernatant were transferred to a fresh 96-well microplate. To assess peptide cytotoxicity, the amount of hemoglobin released was measured at 545 nm. The percent lysis was calculated by assuming 100% release when human blood cells were treated with 1% TRITON™ X-100, and 0% release when incubated with PBS buffer.
# S. aureus USA300 [4] = experiment: Growth inhibition in TSB media (FIG. 15A); assay type: cell-based, Staphylococcus aureus; conditions: 3.1 μM (printed 3.1 LM), 37° C.
# Experimental: FIGS. 15A and 15B show the growth inhibition (FIG. 15A) and propidium iodide-based membrane permeation (FIG. 15B) of S. aureus USA300 in TSB media by 3.1 μM of TetraF2W-RR and its single arginine variants (Table 8) at 37° C. with shaking at 100 rpm.
# Fluorescence spectroscopy was also used to follow bacterial killing. In brief, μL of serially diluted 10× peptide concentrations were done in 96-well coming COSTAR microtiter plates. Propidium iodide at a fixed concentration of 20 μM per well was added to each well which was finally incubated with 88 μL of S. aureus USA300 (with a final OD600 0.1) with continuous shaking at 100 rpm with meander corner well shaking, 37° C. in a FLUOstar® Omega (BMG LABTECH Inc., NC) microplate reader. The plates were read every 5 minutes for a total duration of 2 hours with excitation and emission wavelengths at 584 nm and 620 nm, respectively.
# S. aureus USA300 [5] = assay type: cell-based, Staphylococcus aureus; conditions: 12.5 μM
# Experimental: Two types of experiments were conducted to evaluate the anti-biofilm activity of these peptides against S. aureus USA300 grown under a static condition for 24 hours to form established biofilms in presence of tryptic soy broth (TSB). The experiment was set up using a flat bottom, 96-well, polystyrene microtiter plates (Corning, COSTAR). In short, S. aureus USA300 (10^5 CFU/mL) in fresh TSB media was made from an exponentially growing culture. 200 μL of this bacterial culture was added to each well of the microtiter plates. The plates are then incubated at 37° C. for 24 hours to allow biofilm formation. Media was then carefully removed followed by washing with sterile 1×PBS to remove any unattached bacteria. Solution containing μL of 10× peptide solution and 180 μL of fresh TSB were added. The plates were again incubated at 37° C. for another 24 hours. To measure the extent of biofilm disruption by the peptides as a function of biofilm reduction, crystal violet staining was performed. Media was pipetted out and the wells were carefully washed with 200 μL of PBS to remove the loosely attached cells. Subsequently, 200 μL of 99% methanol was added for fixation and the plates were allowed to sit for 15 minutes. The plates were finally aspirated and dried. Lastly, staining was done with 200 μL of 1% crystal violet in water for 5 minutes. Excess stain was gently rinsed off with tap water, and plates were air-dried. Further, stains were solubilized in 200 μL of 33% glacial acetic acid followed by colorimetric measurement at 600 nm on a Chromate® microtiter plate reader. The amounts of biofilm growth with and without compound treatments were calculated.
# In addition, live cell contents of the peptide acted biofilms was estimated by XTT [2,3-bis(2-methyloxy-4-nitro-5-sulfophenyl)-2H-tertazolium-5-carboxanilide]assay by following the manufacturer's instructions with modifications. A 10% XTT solution in TSB media was added to each well and the plates were again incubated for 2 hours at 37° C. Absorbance at 450 nm (only media with XTT containing wells served as the blank) was obtained using Chromate® microtiter plate reader. Percentage of biofilm reduction for the peptide was plotted assuming 100% biofilm growth is achieved on the bacterial wells without peptide treatment.
smiles,measurement,setting,value
"CC[C@H](C)[C@H](NC(=O)[C@H](CCCNC(=N)N)NC(=O)[C@H](CO)NC(=O)[C@H](CC(C)C)NC(=O)[C@H](Cc1ccccc1)NC(=O)[C@H](Cc1ccccc1)NC(=O)[C@@H](N)Cc1ccccc1)C(=O)N[C@@H](Cc1ccccc1)C(N)=O [Temporin-SHf, FFFLSRIF] (H-FFFLSRIF-NH2; N-terminus and C-terminus assumed)",MIC B. megaterium,B. megaterium,3 µM
same,MIC E. coli ATCC 25922 and ML-35p strains,[1],25 to 30 µM
same,MIC E. coli ATCC 35218,E. coli ATCC 35218,> 200 µM
same,MIC S. aureus ATCC 25923,S. aureus ATCC 25923,12.5 µM
same,MIC S. aureus USA300,S. aureus USA300 [2],25 µM
CC[C@H](C)[C@H](NC(=O)[C@H](CCCNC(=N)N)NC(=O)[C@H](CCCNC(=N)N)NC(=O)[C@H](CC(C)C)NC(=O)[C@H](Cc1c[nH]c2ccccc12)NC(=O)[C@H](Cc1c[nH]c2ccccc12)NC(=O)[C@H](Cc1c[nH]c2ccccc12)NC(=O)[C@@H](N)CS)C(=O)N[C@@H](Cc1c[nH]c2ccccc12)C(N)=O [CysTetraF2W-RR] (H-CWWWLRRIW-NH2; N-terminus and C-terminus assumed),toxicity to HeLa CCL-2 cells,HeLa CCL-2 cells,nontoxic
"CC[C@H](C)[C@H](NC(=O)[C@H](CCCNC(=N)N)NC(=O)[C@H](CCCNC(=N)N)NC(=O)[C@H](CCCNC(=N)N)NC(=O)[C@H](Cc1c[nH]c2ccccc12)NC(=O)[C@H](Cc1c[nH]c2ccccc12)NC(=O)[C@@H](N)Cc1c[nH]c2ccccc12)C(=O)N[C@@H](Cc1c[nH]c2ccccc12)C(N)=O [Peptide L4R, WWWRRRIW] (H-WWWRRRIW-NH2; N-terminus assumed)",loss in activity compared to the WT,S. aureus USA300 [3]; MRSA USA300,four-fold
same,S. aureus (MIC),S. aureus USA300 [3]; S. aureus USA300,12.5 µM
same,E. coli (MIC),E. coli ATCC 25922,25 µM
same,HL50,human red blood cells,>200 µM
same,growth inhibition of S. aureus USA300,S. aureus USA300 [4],also potent
same,killing in preformed biofilms (XTT),S. aureus USA300 [5],20%
